From US7722863B2, “Use of granzyme b as an hsp70/hsp70 peptide dependent inducer of apoptosis in tumor cells” (Multimmune GmbH, priority 2002, dated 2010)

Tests used:
[1] = test system: Hsp70 membrane-positive CX+ tumor subline; experiment: Cell surface binding and uptake of granzyme B (fluorescence microscopy, flow cytometry); assay type: cell-based, human
Hsp70-peptide TKD = biological target: T1, Hsp70-peptide TKD (Homo sapiens, UniProt P0DMV8); experiment: Affinity chromatography of YT cell lysate, Western blot of eluates; assay type: binding; details: Western blot with mAb 2C5, fraction F3
T1 construct: Hsp70-peptide TKD (TKDNNLLGRFELSG (SEO ID NO:1), aa450-463, Bachem, Bubendorf, Switzerland); purchased Bachem
Description: (§1) Bovine serum albumine (BSA, 1 mg/ml, Sigma-Aldrich, Steinheim, Germany), 1 mg/ml lyophylized, recombinant human Hsp70-protein (Stressgen, British Columbia, Canada) or 2 mg/mi Hsp70-peptide TKD (TKDNNLLGRFELSG (SEO ID NO:1), aa450-463, Bachem, Bubendorf, Switzerland) were incubated with equilibrated AminoLink agarose beads (Pierce, Rockford, USA) in 2 ml for 6 h, together with the reductant NaCNBH3. Binding capacity of BSA, Hsp70-protein and Hsp70-peptide TKD was greater 95%. Following removal of uncoupled material by extensive washing with Tris-buffer and quenching of non-reactive groups, cell lysates were administered to the BSA, Hsp70-protein and Hsp70-peptide TKD conjugated columns for 1 h.
(§2) After washing with 10 column volumes of 20 mM Tris buffer, bound proteins were eluted with 3 M sodium chloride in 20 mM Tris buffer, in 5 fractions. Each fraction was subjected to a 10% SDS-PAGE and blotted to PVDF membranes.
(§3) Following blocking in skim-milk (0.1%) and incubation with mAb directed against granzyme B 2C5 (IgG2a, Becton Dickinson, Heidelberg, Germany), at 4° C., for 5 h, Western blots were washed and incubated with a secondary mouse anti-IgG HRP Ab (Dianova, Hamburg, Germany), for 1 h. Proteins were detected using the ECL kit (Amersham Bioscience) for 5 sec. […]

[2] = biological target: T2, recombinant human Hsp70-protein (Homo sapiens, UniProt P0DMV8); experiment: as above; assay type: binding; details: Western blot with mAb 2C5, fraction F3
T2 construct: purchased Stressgen
Description: as §1, §2, §3

T2 sequence (P0DMV8 whole entry): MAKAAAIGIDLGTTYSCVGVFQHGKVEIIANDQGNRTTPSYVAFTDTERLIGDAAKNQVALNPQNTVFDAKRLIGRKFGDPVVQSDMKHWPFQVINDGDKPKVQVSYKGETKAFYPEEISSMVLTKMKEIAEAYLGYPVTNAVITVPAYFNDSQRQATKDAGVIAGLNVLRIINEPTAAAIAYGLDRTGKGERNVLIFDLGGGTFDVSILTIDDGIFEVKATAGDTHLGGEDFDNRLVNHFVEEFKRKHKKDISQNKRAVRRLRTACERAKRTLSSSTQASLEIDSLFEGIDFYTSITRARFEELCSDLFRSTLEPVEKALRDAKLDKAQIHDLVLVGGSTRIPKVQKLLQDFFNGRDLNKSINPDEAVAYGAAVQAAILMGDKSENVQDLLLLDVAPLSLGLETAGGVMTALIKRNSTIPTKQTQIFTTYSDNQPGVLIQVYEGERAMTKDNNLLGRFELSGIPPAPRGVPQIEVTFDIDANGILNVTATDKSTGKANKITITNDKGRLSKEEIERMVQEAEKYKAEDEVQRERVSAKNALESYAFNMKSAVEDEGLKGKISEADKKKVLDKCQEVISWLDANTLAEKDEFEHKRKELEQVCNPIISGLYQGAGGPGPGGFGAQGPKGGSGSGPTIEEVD

Substance: granzyme B
- granzyme B uptake, flow cytometry of permeabilized cells ([1]; 1 μg/ml granzyme B, 30 min, 37° C.): faint shift of the granzyme B peak to the right
- granzyme B uptake, flow cytometry of permeabilized cells ([1]; 2 μg/ml and 4 μg/ml granzyme B): dose-dependent increase in granzyme B uptake
- granzyme B cell surface binding (immunofluorescence) ([1]; 15 min at 4° C., granzyme B 2 μg/ml): typical cell surface staining, was detected
- granzyme B uptake, cytoplasmic staining (immunofluorescence) ([1]; temperature shift 4° C. to 37° C., 30 min): resulted in uptake of granzyme B
- granzyme B in YT cell eluates from Hsp70-peptide (TKD) column (Hsp70-peptide TKD): dominant 32 kDa granzyme B protein band
- granzyme B in YT cell eluates from Hsp70-protein column [2]: dominant 32 kDa granzyme B protein band
